From patent US7825126B2 (The United States of America as represented by the …, priority 2004, dated 2010)
Where two headings read alike, the source gives them in different places.

Key:
[1] = biological target: T1, human A2B adenosine receptor (hA2BAR) (Homo sapiens, UniProt P29275); conditions: data from literature (footnotes c, f, h); cited from earlier work
T1 sequence (P29275 1-332): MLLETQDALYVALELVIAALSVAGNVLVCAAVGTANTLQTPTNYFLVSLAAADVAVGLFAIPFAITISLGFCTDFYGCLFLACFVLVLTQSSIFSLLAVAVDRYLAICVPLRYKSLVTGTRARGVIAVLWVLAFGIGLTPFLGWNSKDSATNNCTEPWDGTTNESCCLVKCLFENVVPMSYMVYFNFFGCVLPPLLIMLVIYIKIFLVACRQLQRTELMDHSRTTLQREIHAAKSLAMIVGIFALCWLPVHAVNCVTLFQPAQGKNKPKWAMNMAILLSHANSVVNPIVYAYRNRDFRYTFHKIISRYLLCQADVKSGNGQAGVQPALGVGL

[2] = biological target: T2, human A3 adenosine receptor (Homo sapiens, UniProt P0DMS8); design: expressed in transfected cells; host or cells: CHO cells; conditions: relative to 10 μM Cl-IB-MECA, data from literature (footnotes c, d, e, f); cited from earlier work
T2 sequence (P0DMS8 1-318): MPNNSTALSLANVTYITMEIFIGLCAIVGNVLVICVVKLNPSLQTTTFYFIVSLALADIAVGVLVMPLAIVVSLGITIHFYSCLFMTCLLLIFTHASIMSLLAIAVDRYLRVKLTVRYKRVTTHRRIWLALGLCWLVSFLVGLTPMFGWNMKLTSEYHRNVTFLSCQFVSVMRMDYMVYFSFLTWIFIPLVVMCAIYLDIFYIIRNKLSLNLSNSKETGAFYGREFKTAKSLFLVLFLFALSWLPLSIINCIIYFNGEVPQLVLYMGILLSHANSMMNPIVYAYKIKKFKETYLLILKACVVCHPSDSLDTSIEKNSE

[3] = biological target: T3, human A1 receptors (Homo sapiens, UniProt P30542)
T3 construct: expressed in transfected cells
T3 sequence (P30542 1-326): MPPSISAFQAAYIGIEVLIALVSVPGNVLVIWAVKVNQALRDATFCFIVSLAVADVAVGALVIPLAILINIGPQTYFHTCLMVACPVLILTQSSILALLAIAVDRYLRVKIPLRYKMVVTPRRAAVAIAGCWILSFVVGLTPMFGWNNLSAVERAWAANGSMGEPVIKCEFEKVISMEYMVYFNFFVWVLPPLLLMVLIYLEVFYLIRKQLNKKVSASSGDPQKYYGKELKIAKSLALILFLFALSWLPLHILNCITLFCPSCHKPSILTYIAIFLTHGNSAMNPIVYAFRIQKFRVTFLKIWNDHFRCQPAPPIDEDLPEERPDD

[4] = biological target: T4, rat A3 adenosine receptor (Rattus norvegicus, UniProt P28647)
T4 construct: expressed in transfected cells; host or cells: CHO cells
T4 sequence (P28647 1-320): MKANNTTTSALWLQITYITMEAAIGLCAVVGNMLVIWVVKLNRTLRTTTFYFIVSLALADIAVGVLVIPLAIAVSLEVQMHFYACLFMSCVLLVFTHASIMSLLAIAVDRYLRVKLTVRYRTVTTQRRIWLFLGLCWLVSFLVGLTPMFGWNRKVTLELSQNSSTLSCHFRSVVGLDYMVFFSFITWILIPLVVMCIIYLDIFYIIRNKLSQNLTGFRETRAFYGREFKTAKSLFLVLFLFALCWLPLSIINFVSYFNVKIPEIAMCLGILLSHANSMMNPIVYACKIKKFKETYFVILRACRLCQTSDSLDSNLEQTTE

[5] = biological target: T4, rat A3 adenosine receptor; assay: Binding at rat A3 adenosine receptor ([125I]I-AB-MECA, CHO cell membranes); conditions: rat A3 AR in CHO cells; unit nM printed in b194 only; read-out: Ki(rA3AR)
[6] = biological target: T5, human A2A receptors (Homo sapiens, UniProt P29274)
T5 construct: expressed in transfected cells

[7] = biological target: T2, human A3 adenosine receptor; design: expressed in transfected cells; host or cells: CHO cells; conditions: data from literature (footnotes c, d, e, f); read-out: Ki(hA3AR); cited from earlier work
[8] = biological target: T5, human A2A receptors; assay: Binding at human A2A adenosine receptor ([3H]CGS21680, HEK-293 cell membranes); conditions: [3H]CGS 21680; for Ki: mean ± s.e.m., n = 3-5, read-out: Ki(hA2AAR)
[9] = biological target: T2, human A3 adenosine receptor; assay: Cyclic AMP accumulation assay (inhibition of forskolin-stimulated cAMP), CHO cells expressing human A3 adenosine receptor; conditions: for % Activation (hA3AR) at 10 μM: relative to 10 μM Cl-IB-MECA
[10] = biological target: T3, human A1 receptors; assay: Binding at human A1 adenosine receptor ([3H]R-PIA, CHO cell membranes); conditions: mean ± s.e.m., n = 3-5, read-out: Ki(hA1AR)
[11] = biological target: T2, human A3 adenosine receptor
[12] = biological target: T1, human A2B adenosine receptor (hA2BAR); assay: Activation of human A2B adenosine receptor at 10 μM; assay type: cell-based; conditions: CHO cells
[13] = biological target: T2, human A3 adenosine receptor; assay: Binding at human A3 adenosine receptor ([125I]I-AB-MECA, CHO cell membranes); design: expressed in transfected cells; host or cells: CHO cells; conditions: for Ki: [125I]I-AB-MECA, mean ± s.e.m., n = 3-5, read-out: Ki(hA3AR); for Selectivity for the human A3 adenosine receptor in comparison to the A1 adenosine receptor: ratio of Ki hA1 / hA3
[14] = data from literature (footnotes c, d, f, g); read-out: Ki(hA1AR); cited from earlier work
[15] = rat A3 AR; data from literature (footnotes c, d, f, i); unit nM printed in b194 only; read-out: Ki(rA3AR); cited from earlier work
[16] = read-out: Ki(hA1AR); data from literature (footnotes c, d, f, g); cited from earlier work
[17] = 10 μM; data from Ohno et al. (footnote c); cited from earlier work
[18] = read-out: Ki(hA2AAR); data from literature (footnotes c, d, f, g); cited from earlier work

T5 sequence (P29274 whole entry): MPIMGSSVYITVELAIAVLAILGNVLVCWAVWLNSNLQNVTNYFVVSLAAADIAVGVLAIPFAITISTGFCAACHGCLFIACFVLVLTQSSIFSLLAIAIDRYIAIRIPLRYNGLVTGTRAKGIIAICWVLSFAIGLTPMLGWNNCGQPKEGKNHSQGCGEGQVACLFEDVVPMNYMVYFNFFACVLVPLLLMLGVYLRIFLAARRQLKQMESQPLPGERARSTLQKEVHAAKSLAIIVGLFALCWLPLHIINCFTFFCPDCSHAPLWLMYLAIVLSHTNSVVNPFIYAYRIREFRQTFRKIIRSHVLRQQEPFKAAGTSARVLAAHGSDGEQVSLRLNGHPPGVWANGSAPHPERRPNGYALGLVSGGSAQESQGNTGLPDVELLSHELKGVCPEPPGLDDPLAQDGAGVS

Ki [5] [nM]	Structure (SMILES)	% Activation (hA2BAR) at 10 μM [1] [%]	% Activation (hA3AR) at 10 μM [2]	Ki [4, 15] [nM]	Ki [10] [nM]	% Activation (hA2BAR) at 10 μM [12] [%]	further results
	OCC1OC(n2cnc3c(NCc4cccc(I)c4)ncnc32)C(O)C1O (centres unmarked) [Compound 1a]	58	46 ± 8%	9.5 ± 1.4			Ki [3, 14]: 7.4 ± 1.7 nM
	OCC1OC(n2cnc3c(NCc4cccc(I)c4)nc(Cl)nc32)C(O)C1O (centres unmarked) [Compound 1b]	16	0%				Ki [3, 16]: 17 ± 2 nM; Ki ([4]; read-out: Ki(rA3AR); rat A3 AR; data from literature (footnotes c, d, f, i); unit nM printed in b194 only; cited from earlier work): 2.7 ± 1.2 nM
1.1 ± 0.1	CNC(=O)[C@@]12C[C@@H]1[C@@H](n1cnc3c(NCc4cccc(I)c4)nc(Cl)nc31)[C@H](O)[C@@H]2O [Compound 5, (1′S,2′R,3′S,4′R,5′S)-[4′-(2-chloro-6-{[(3-iodophenyl)methyl]amino}purin-9-yl)-2′,3′-dihydroxybicyclo[3.1.0]hexyl]-N-methylcarboxamide]		100^e %				
	CNc1ncnc2c1ncn2C1OC(CO)C(O)C1O (centres unmarked) [Compound 6]	16		6400 ± 1600			Ki [3, 16]: 6000 ± 2000 nM; % displ. at 10 μM (hA2AAR) [6, 17]: 17%; Ki [7]: 9.3 ± 0.4 nM
	CNc1nc(N)nc2c1ncn2C1OC(CO)C(O)C1O (centres unmarked) [Compound 7]	11	98 ± 3%	> 10000			Ki [3, 16]: 480 ± 20 nM; % displ. at 10 μM (hA2AAR) [6, 17]: 15%; Ki [7]: 39 ± 2 nM
	OCC1OC(n2cnc3c(NC4CC4c4ccccc4)ncnc32)C(O)C1O (centres unmarked) [Compound 10]	26	101 ± 5%	400 ± 30			Ki ([6]; data from literature (footnotes c, d, f, g); read-out: Ki(hA2AAR); cited from earlier work): 2500 ± 700 nM
	Cc1ccccc1CNc1ncnc2c1ncn2C1OC(CO)C(O)C1O (centres unmarked) [Compound 11]		100 ± 3%	38 ± 15			Ki [3, 16]: 39 ± 8 nM; Ki [6, 18]: 760 ± 110 nM; Ki [7]: 47 ± 11 nM
	OCC1OC(n2cnc3c(NCc4cccnc4)ncnc32)C(O)C1O (centres unmarked) [Compound 12]		100 ± 6%	290 ± 70			Ki [3, 14]: 42 ± 4 nM; Ki [6, 18]: 2300 ± 120 nM; Ki [7]: 4.5 ± 1.1 nM
	OCC1OC(n2cnc3c(NCC(c4ccccc4)c4ccccc4)ncnc32)C(O)C1O (centres unmarked) [Compound 13]	70	0%	540 ± 200			
160 ± 30	CNC(=O)[C@@]12C[C@@H]1[C@@H](n1cnc3c(NC)nc(Cl)nc31)[C@H](O)[C@@H]2O [Compound 14]				2100 ± 1700		% displ. at 10 μM (hA2AAR) [8]: 6%; % Activation (hA3AR) at 10 μM [9]: 104 ± 7%
0.76 ± 0.08	CNC(=O)C12CC1C(n1cnc3c(NCc4cccc(Br)c4)nc(Cl)nc31)C(O)C2O (stereo not drawn) [Compound 17, (1′S,2′R,3′S,4′S,5′S)-4′-[6-(3-Bromobenzylamino)-2-chloro-purin-9-yl]-2′,3′-dihydroxy-bicyclo[3.1.0]hexane-1′-carboxylic acid methyl amide]				270 ± 70	38	% Activation (hA3AR) at 10 μM [11]: 100 ± 11%; Ki [8]: 1300 ± 100 nM; Ki [13]: 0.38 nM
11 ± 3	CNC(=O)C12CC1C(n1cnc3c(NCc4cc(Cl)ccc4OCc4ccccc4)nc(Cl)nc31)C(O)C2O (stereo not drawn) [Compound 24, (1′S,2′R,3′S,4′S,5′S)-4′-[6-(5-Chloro-2-benzyloxy-benzylamino)-2-chloro-purin-9-yl]-2′,3′-dihydroxy-bicyclo[3.1.0]hexane-1′-carboxylic acid methylamide]				1200 ± 200	49	Ki [8]: 850 ± 160 nM; % Activation (hA3AR) at 10 μM [9]: 110 ± 10%; Ki [13]: 5.2 ± 1.3 nM

Structure (SMILES)	Ki [5] [nM]	% Activation (hA2BAR) at 10 μM [1] [%]	% Activation (hA3AR) at 10 μM [2]	Ki [4, 15] [nM]	Ki [10] [nM]	% Activation (hA2BAR) at 10 μM [12] [%]	further results
CNC(=O)[C@@]12C[C@@H]1[C@H](n1cnc3c(NCc4cccc(Cl)c4)nc(Cl)nc31)[C@H](O)[C@@H]2O [Compound 18, (1′S,2′R,3′S,4′S,5′S)-4′-[6-(3-Chlorobenzylamino)-2-chloro-purin-9-yl]-2′,3′-dihydroxy-bicyclo[3.1.0]hexane-1′-carboxylic acid methylamide]	1 ± 0.1				260 ± 60	38	Ki [8]: 2300 ± 100 nM
CNC(=O)C12CC1C(n1cnc3c(NCc4cc(OC)ccc4OC)nc(Cl)nc31)C(O)C2O (stereo not drawn) [Compound 26, (1′S,2′R,3′S,4′S,5′S)-4′-[6-(2,5-Dimethoxy-benzylamino)-2-chloro-purin-9-yl]-2′,3′-dihydroxy-bicyclo[3.1.0]hexane-1′-carboxylic acid methylamide]	0.87 ± 0.24				1600 ± 200	0	% displ. at 10 μM (hA2AAR) [8]: 52%; % Activation (hA3AR) at 10 μM [9]: 107 ± 10%; Ki [13]: 1.4 ± 0.2 nM; Selectivity for the human A3 adenosine receptor in comparison to the A1 adenosine receptor [13]: 1200 fold
CNC(=O)[C@@]12C[C@@H]1[C@@H](n1cnc3c(NCC(c4ccccc4)c4ccccc4)nc(Cl)nc31)[C@H](O)[C@@H]2O [Compound 34]	10 ± 4				1300 ± 100	46	% Activation (hA3AR) at 10 μM [11]: 107 ± 9%; Ki [8]: 1600 ± 100 nM; agonist efficacy at the A3 adenosine receptor (inhibition of forskolin-stimulated adenylate cyclase) ([9]; concentration of 10 μM): agonist; affinity at the human A3 adenosine receptor (in words) ([13]; 2-chloro, 5′-N-methylamide substituted compounds): subnanomolar; Ki [13]: 0.69 ± 0.02 nM; Selectivity for the human A3 adenosine receptor in comparison to the A1 adenosine receptor [13]: 1900 fold
